From PubChem BioAssay AID2060500 (Molecular Pharmacology Branch, DTP, NCI, 2025)
pIC50: −log10 of the molar value.

Tested on: 596521-263-R-J1-PDC complex spheroids, viability % of control
Assay: Anticancer human tumor 596521-263-R-J1-PDC patient-derived soft tissue sarcoma cell line growth inhibition [GQUAD]
Conditions: for pIC50: curve of first compound; for viability, T/C: stronger effect = lower value
Summary of the method: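 Viability of tumor cells grown as complex spheroids with endothelial and stromal cells, exposed to drug combinations. Top concentration at or near clinical Cmax (else 10 microM), diluted in half-log increments.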

[1] = second compound 0.0316 µM, first compound 0.0316 µM
[2] = second compound 0.0316 µM, first compound 0.316 µM
[3] = second compound 0.1 µM, first compound 0.0316 µM
[4] = second compound 0.1 µM, first compound 0.316 µM
[5] = second compound 0.316 µM, first compound 0.0316 µM
[6] = second compound 0.316 µM, first compound 0.316 µM
[7] = second compound 1 µM, first compound 0.0316 µM
[8] = second compound 1 µM, first compound 0.316 µM
[9] = second compound 3.16 µM, first compound 0.0316 µM
[10] = second compound 3.16 µM, first compound 0.316 µM
[11] = second compound 10 µM, first compound 0.0316 µM
[12] = second compound 10 µM, first compound 0.316 µM
[13] = second compound 0.0316 µM, first compound 0.1 µM
[14] = second compound 0.0316 µM, first compound 1 µM
[15] = second compound 0.0316 µM, first compound 3.16 µM
[16] = second compound 0.0316 µM, first compound 10 µM
[17] = second compound 0.1 µM, first compound 0.1 µM
[18] = second compound 0.1 µM, first compound 1 µM
[19] = second compound 0.1 µM, first compound 3.16 µM
[20] = second compound 0.1 µM, first compound 10 µM
[21] = second compound 0.316 µM, first compound 0.1 µM
[22] = second compound 0.316 µM, first compound 1 µM
[23] = second compound 0.316 µM, first compound 3.16 µM
[24] = second compound 0.316 µM, first compound 10 µM
[25] = second compound 1 µM, first compound 0.1 µM
[26] = second compound 1 µM, first compound 1 µM
[27] = second compound 1 µM, first compound 3.16 µM
[28] = second compound 1 µM, first compound 10 µM
[29] = second compound 3.16 µM, first compound 0.1 µM
[30] = second compound 3.16 µM, first compound 1 µM
[31] = second compound 3.16 µM, first compound 3.16 µM
[32] = second compound 3.16 µM, first compound 10 µM
[33] = second compound 10 µM, first compound 0.1 µM
[34] = second compound 10 µM, first compound 1 µM
[35] = second compound 10 µM, first compound 3.16 µM
[36] = second compound 10 µM, first compound 10 µM
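Further: spheroids exposed to drugs for 7 days before viability reading.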
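Wherever viability, T/C is given: 100% = DMSO vehicle control viability.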

With `CC[C@@]1(O)C(=O)OCc2c1cc1n(c2=O)Cc2cc3c(CN(C)C)c(O)ccc3nc2-1` + CN(C)c1ccc(Nc2c3ccc(NC(=O)CCN4CCCC4)cc3nc3cc(NC(=O)CCN4CCCC4)ccc23)cc1 the pIC50 (second compound 0.0316 µM) was less than 6.50, the pIC50 (second compound 0.1 µM) was 6.79 and the pIC50 (second compound 0.316 µM) was less than 6.50. The pIC50 (second compound 1 µM) was less than 6.50, the pIC50 (second compound 3.16 µM) was less than 6.50 and the pIC50 (second compound 10 µM) was 7.11. The viability, T/C (second compound 0.0316 µM, first compound 0.000999 µM) was 99.7%, the viability, T/C (second compound 0.0316 µM, first compound 0.00316 µM) was 108% and the viability, T/C (second compound 0.0316 µM, first compound 0.00999 µM) was 91.9%. For the same compound, the viability, T/C [1] was 62.4%, the viability, T/C (second compound 0.0316 µM, first compound 0.0999 µM) was 63.8% and the viability, T/C [2] was 53.2%. It also gave a viability, T/C (second compound 0.1 µM, first compound 0.000999 µM) of 114%, a viability, T/C (second compound 0.1 µM, first compound 0.00316 µM) of 105% and a viability, T/C (second compound 0.1 µM, first compound 0.00999 µM) of 103%. It also gave a viability, T/C [3] of 65.3%, a viability, T/C (second compound 0.1 µM, first compound 0.0999 µM) of 54.3% and a viability, T/C [4] of 46.2%. It also gave a viability, T/C (second compound 0.316 µM, first compound 0.000999 µM) of 94.5%, a viability, T/C (second compound 0.316 µM, first compound 0.00316 µM) of 97.9% and a viability, T/C (second compound 0.316 µM, first compound 0.00999 µM) of 83.3%. The viability, T/C [5] was 74.1%, the viability, T/C (second compound 0.316 µM, first compound 0.0999 µM) was 59.4% and the viability, T/C [6] was 53.6%. For the same compound, the viability, T/C (second compound 1 µM, first compound 0.000999 µM) was 92%, the viability, T/C (second compound 1 µM, first compound 0.00316 µM) was 92.9% and the viability, T/C (second compound 1 µM, first compound 0.00999 µM) was 86.1%. The viability, T/C [7] was 73.1%, the viability, T/C (second compound 1 µM, first compound 0.0999 µM) was 57.3% and the viability, T/C [8] was 54.2%. It also gave a viability, T/C (second compound 3.16 µM, first compound 0.000999 µM) of 95.8%, a viability, T/C (second compound 3.16 µM, first compound 0.00316 µM) of 88.8% and a viability, T/C (second compound 3.16 µM, first compound 0.00999 µM) of 84.1%. For the same compound, the viability, T/C [9] was 61.1%, the viability, T/C (second compound 3.16 µM, first compound 0.0999 µM) was 59.1% and the viability, T/C [10] was 52.5%. The viability, T/C (second compound 10 µM, first compound 0.000999 µM) was 58.5%, the viability, T/C (second compound 10 µM, first compound 0.00316 µM) was 70.6% and the viability, T/C (second compound 10 µM, first compound 0.00999 µM) was 54.6%. The viability, T/C [11] was 50.1%, the viability, T/C (second compound 10 µM, first compound 0.0999 µM) was 52% and the viability, T/C [12] was 41.4%.

With `CCCS(=O)(=O)Nc1ccc(F)c(C(=O)c2c[nH]c3ncc(-c4ccc(Cl)cc4)cc23)c1F` + CN(C)c1ccc(Nc2c3ccc(NC(=O)CCN4CCCC4)cc3nc3cc(NC(=O)CCN4CCCC4)ccc23)cc1 the pIC50 (second compound 0.0316 µM) was 5.29, the pIC50 (second compound 0.1 µM) was 5.26 and the pIC50 (second compound 0.316 µM) was 5.25. The pIC50 (second compound 1 µM) was 5.18, the pIC50 (second compound 3.16 µM) was 5.30 and the pIC50 (second compound 10 µM) was 5.74. The viability, T/C [1] was 94.7%, the viability, T/C [13] was 83.9% and the viability, T/C [2] was 95.3%. The viability, T/C [14] was 82.1%, the viability, T/C [15] was 65.8% and the viability, T/C [16] was 29.4%. The viability, T/C [3] was 101%, the viability, T/C [17] was 88.9% and the viability, T/C [4] was 104%. It also gave a viability, T/C [18] of 83%, a viability, T/C [19] of 69.8% and a viability, T/C [20] of 29.9%. For the same compound, the viability, T/C [5] was 94.4%, the viability, T/C [21] was 93.8% and the viability, T/C [6] was 89.4%. It also gave a viability, T/C [22] of 80%, a viability, T/C [23] of 65.9% and a viability, T/C [24] of 34.4%. For the same compound, the viability, T/C [7] was 98.5%, the viability, T/C [25] was 97.7% and the viability, T/C [8] was 85.8%. The viability, T/C [26] was 84.1%, the viability, T/C [27] was 71% and the viability, T/C [28] was 39.1%. For the same compound, the viability, T/C [9] was 93.2%, the viability, T/C [29] was 91.7% and the viability, T/C [10] was 94%. The viability, T/C [30] was 84.3%, the viability, T/C [31] was 56.9% and the viability, T/C [32] was 39.8%. For the same compound, the viability, T/C [11] was 62.9%, the viability, T/C [33] was 60.5% and the viability, T/C [12] was 56.9%. It also gave a viability, T/C [34] of 57.3%, a viability, T/C [35] of 44.5% and a viability, T/C [36] of 30.1%.

`COc1ncnc(C2CC2)c1-c1ncc2cnn(Cc3ccc(-c4nc(C(F)(F)F)cn4C(C)C)cc3)c2n1` + Cc1cnc(CNC(=O)c2c(=O)c3ccc(N4CCCN(C)CC4)nc3n3c2sc2ccccc23)cn1 gave a pIC50 (second compound 0.0316 µM) of less than 5.00, a pIC50 (second compound 0.1 µM) of less than 5.00 and a pIC50 (second compound 0.316 µM) of less than 5.00. For the same compound, the pIC50 (second compound 1 µM) was less than 5.00, the pIC50 (second compound 3.16 µM) was less than 5.00 and the pIC50 (second compound 10 µM) was greater than 7.50. It also gave a viability, T/C [1] of 90.2%, a viability, T/C [13] of 90.6% and a viability, T/C [2] of 78%. It also gave a viability, T/C [14] of 90.4%, a viability, T/C [15] of 86.9% and a viability, T/C [16] of 79%. It also gave a viability, T/C [3] of 84.4%, a viability, T/C [17] of 77.2% and a viability, T/C [4] of 74.7%. The viability, T/C [18] was 77.1%, the viability, T/C [19] was 85% and the viability, T/C [20] was 79.2%. The viability, T/C [5] was 72%, the viability, T/C [21] was 74.2% and the viability, T/C [6] was 67.9%. The viability, T/C [22] was 79.5%, the viability, T/C [23] was 70.2% and the viability, T/C [24] was 65.7%. It also gave a viability, T/C [7] of 62.8%, a viability, T/C [25] of 65% and a viability, T/C [8] of 65.1%. It also gave a viability, T/C [26] of 63.1%, a viability, T/C [27] of 64% and a viability, T/C [28] of 61.9%. It also gave a viability, T/C [9] of 53.1%, a viability, T/C [29] of 59.2% and a viability, T/C [10] of 51.6%. It also gave a viability, T/C [30] of 48.6%, a viability, T/C [31] of 59.8% and a viability, T/C [32] of 49.9%. It also gave a viability, T/C [11] of 44.6%, a viability, T/C [33] of 25.6% and a viability, T/C [12] of 41.5%. It also gave a viability, T/C [34] of 42.6%, a viability, T/C [35] of 40.7% and a viability, T/C [36] of 0.28%.

For `CCCS(=O)(=O)Nc1ccc(F)c(C(=O)c2c[nH]c3ncc(-c4ccc(Cl)cc4)cc23)c1F` + Cc1cnc(CNC(=O)c2c(=O)c3ccc(N4CCCN(C)CC4)nc3n3c2sc2ccccc23)cn1, the pIC50 (second compound 0.0316 µM) was 5.08, the pIC50 (second compound 0.1 µM) was 5.13 and the pIC50 (second compound 0.316 µM) was 5.18. It also gave a pIC50 (second compound 1 µM) of 5.30, a pIC50 (second compound 3.16 µM) of 5.37 and a pIC50 (second compound 10 µM) greater than 7.50. The viability, T/C [1] was 100%, the viability, T/C [13] was 90.1% and the viability, T/C [2] was 98.1%. For the same compound, the viability, T/C [14] was 97.5%, the viability, T/C [15] was 78.5% and the viability, T/C [16] was 44.4%. For the same compound, the viability, T/C [3] was 90.6%, the viability, T/C [17] was 85.5% and the viability, T/C [4] was 95.7%. The viability, T/C [18] was 79.4%, the viability, T/C [19] was 83.6% and the viability, T/C [20] was 37.5%. It also gave a viability, T/C [5] of 81.2%, a viability, T/C [21] of 84.6% and a viability, T/C [6] of 80.1%. For the same compound, the viability, T/C [22] was 71.7%, the viability, T/C [23] was 71.3% and the viability, T/C [24] was 39.5%. It also gave a viability, T/C [7] of 64.2%, a viability, T/C [25] of 65.8% and a viability, T/C [8] of 67%. It also gave a viability, T/C [26] of 61.5%, a viability, T/C [27] of 53.3% and a viability, T/C [28] of 43.1%. For the same compound, the viability, T/C [9] was 57%, the viability, T/C [29] was 50.3% and the viability, T/C [10] was 62.8%. The viability, T/C [30] was 52%, the viability, T/C [31] was 55.2% and the viability, T/C [32] was 35.8%. For the same compound, the viability, T/C [11] was 46.5%, the viability, T/C [33] was 27.8% and the viability, T/C [12] was 50.4%. The viability, T/C [34] was 46.1%, the viability, T/C [35] was 24.7% and the viability, T/C [36] was 0.21%.
